# Measurements from ChEMBL document CHEMBL3085643, “Synthesis and evaluation in monkey of [(18)F]4-fluoro-N-methyl-N-(4-(6-(methylamino)pyrimidin-4-yl)thiazol-2-yl)benzamide ([(18)F]FIMX): a promising radioligand for PET imaging of brain metabotropic glutamate receptor 1 (mGluR1)” (J Med Chem, 2013).
# What was measured:
# [1] = biological target: Kappa-type opioid receptor (Homo sapiens, UniProt P41145); assay: Binding affinity to human kappa opioid receptor by PDSP assay
# [2] = biological target: Delta-type opioid receptor (Homo sapiens, UniProt P41143); assay: Binding affinity to human delta opioid receptor by PDSP assay
# Chain of Delta-type opioid receptor (P41143 whole entry): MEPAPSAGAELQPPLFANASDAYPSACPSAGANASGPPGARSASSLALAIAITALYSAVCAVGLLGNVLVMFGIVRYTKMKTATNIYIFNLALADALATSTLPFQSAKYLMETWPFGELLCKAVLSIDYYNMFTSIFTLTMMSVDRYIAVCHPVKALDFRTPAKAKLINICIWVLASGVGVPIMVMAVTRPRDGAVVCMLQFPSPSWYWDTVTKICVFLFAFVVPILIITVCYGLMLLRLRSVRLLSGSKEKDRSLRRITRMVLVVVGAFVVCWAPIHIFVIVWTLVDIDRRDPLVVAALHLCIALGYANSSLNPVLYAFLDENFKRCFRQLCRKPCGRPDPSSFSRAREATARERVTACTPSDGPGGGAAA
# Mu-type opioid receptor = Mu-type opioid receptor (Homo sapiens, UniProt P35372); assay: Binding affinity to human mu opioid receptor by PDSP assay
# [3] = biological target: Sodium-dependent serotonin transporter (Homo sapiens, UniProt P31645); assay: Binding affinity to human SERT by PDSP assay
# Chain of Sodium-dependent serotonin transporter (P31645 whole entry): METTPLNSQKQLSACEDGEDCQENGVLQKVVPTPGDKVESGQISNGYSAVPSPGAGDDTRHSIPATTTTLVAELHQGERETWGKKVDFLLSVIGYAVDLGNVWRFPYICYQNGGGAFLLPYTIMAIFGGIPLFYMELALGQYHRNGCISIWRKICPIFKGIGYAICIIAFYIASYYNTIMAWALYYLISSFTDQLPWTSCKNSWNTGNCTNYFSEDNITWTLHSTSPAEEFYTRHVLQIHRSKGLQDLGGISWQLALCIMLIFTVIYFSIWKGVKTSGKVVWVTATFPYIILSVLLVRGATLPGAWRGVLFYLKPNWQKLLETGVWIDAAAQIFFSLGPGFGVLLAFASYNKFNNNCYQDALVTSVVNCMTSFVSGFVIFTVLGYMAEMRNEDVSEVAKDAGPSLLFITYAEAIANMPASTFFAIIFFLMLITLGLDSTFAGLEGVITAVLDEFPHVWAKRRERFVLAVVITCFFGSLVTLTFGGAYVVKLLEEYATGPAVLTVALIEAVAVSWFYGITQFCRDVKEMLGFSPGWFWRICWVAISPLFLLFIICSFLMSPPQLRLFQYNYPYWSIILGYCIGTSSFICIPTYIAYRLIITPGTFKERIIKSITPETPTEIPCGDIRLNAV
# Translocator protein = Translocator protein (Homo sapiens, UniProt P30536); assay: Binding affinity to human TSPO receptor by PDSP assay
# [4] = biological target: 5-hydroxytryptamine receptor 2C (Homo sapiens, UniProt P28335); assay: Binding affinity to human 5-HT2C receptor by PDSP assay
# Chain of 5-hydroxytryptamine receptor 2C (P28335 whole entry): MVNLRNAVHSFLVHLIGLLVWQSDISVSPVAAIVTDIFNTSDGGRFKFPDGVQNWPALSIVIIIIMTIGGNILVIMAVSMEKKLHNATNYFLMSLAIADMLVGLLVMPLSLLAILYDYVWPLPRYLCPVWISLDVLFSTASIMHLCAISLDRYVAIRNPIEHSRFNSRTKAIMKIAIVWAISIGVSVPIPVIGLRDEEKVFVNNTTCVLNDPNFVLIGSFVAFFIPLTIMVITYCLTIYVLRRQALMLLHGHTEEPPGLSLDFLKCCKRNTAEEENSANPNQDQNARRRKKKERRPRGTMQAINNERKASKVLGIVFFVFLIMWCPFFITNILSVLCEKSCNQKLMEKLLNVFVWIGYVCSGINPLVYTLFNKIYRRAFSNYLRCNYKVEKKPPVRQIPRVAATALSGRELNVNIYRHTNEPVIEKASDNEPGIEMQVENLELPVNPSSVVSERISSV
# [5] = biological target: Alpha-2B adrenergic receptor (Homo sapiens, UniProt P18089); assay: Binding affinity to human alpha-2B adrenergic receptor by PDSP assay
# [6] = biological target: 5-hydroxytryptamine receptor 1A (Homo sapiens, UniProt P08908); assay: Binding affinity to human 5-HT1A receptor by PDSP assay
# [7] = biological target: 5-hydroxytryptamine receptor 1B (Homo sapiens, UniProt P28222); assay: Binding affinity to human 5-HT1B receptor by PDSP assay
# D(1B) dopamine receptor = D(1B) dopamine receptor (Homo sapiens, UniProt P21918); assay: Binding affinity to human dopamine D5 receptor by PDSP assay
# [8] = biological target: Muscarinic acetylcholine receptor M3 (Homo sapiens, UniProt P20309); assay: Binding affinity to human muscarinic M3 receptor by PDSP assay
# D(3) dopamine receptor = D(3) dopamine receptor (Homo sapiens, UniProt P35462); assay: Binding affinity to human dopamine D3 receptor by PDSP assay
# Chain of D(3) dopamine receptor (P35462 whole entry): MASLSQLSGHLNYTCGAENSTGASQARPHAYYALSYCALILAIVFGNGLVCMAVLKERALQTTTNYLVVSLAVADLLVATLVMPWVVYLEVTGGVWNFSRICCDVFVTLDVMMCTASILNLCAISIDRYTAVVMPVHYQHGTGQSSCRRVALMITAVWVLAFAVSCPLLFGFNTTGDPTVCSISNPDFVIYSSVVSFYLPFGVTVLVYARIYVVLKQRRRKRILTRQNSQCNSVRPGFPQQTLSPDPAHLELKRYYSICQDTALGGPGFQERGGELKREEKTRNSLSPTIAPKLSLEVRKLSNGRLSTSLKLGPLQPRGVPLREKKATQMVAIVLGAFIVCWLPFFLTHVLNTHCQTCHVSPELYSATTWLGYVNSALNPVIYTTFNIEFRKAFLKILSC
# [9] = biological target: Muscarinic acetylcholine receptor M5 (Homo sapiens, UniProt P08912); assay: Binding affinity to human muscarinic M5 receptor by PDSP assay
# [10] = Binding affinity to BZP site in rat brain by PDSP assay; format: tissue-based
# [11] = biological target: 5-hydroxytryptamine receptor 1D (Homo sapiens, UniProt P28221); assay: Binding affinity to human 5-HT1D receptor by PDSP assay
# Histamine H3 receptor = Histamine H3 receptor (Homo sapiens, UniProt Q9Y5N1); assay: Binding affinity to human histamine H3 receptor by PDSP assay
# [12] = biological target: 5-hydroxytryptamine receptor 5A (Homo sapiens, UniProt P47898); assay: Binding affinity to human 5-HT5A receptor by PDSP assay
# Chain of 5-hydroxytryptamine receptor 5A (P47898 whole entry): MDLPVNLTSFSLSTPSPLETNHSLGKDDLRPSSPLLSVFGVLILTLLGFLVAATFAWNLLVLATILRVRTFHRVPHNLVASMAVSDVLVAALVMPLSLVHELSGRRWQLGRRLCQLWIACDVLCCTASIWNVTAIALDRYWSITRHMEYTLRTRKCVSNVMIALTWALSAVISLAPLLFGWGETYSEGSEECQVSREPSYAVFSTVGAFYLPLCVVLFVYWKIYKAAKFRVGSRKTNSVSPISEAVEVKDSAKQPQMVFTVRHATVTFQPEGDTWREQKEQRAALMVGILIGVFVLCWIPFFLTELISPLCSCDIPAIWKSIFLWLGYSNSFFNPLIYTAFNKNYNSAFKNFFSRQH
# [13] = biological target: Muscarinic acetylcholine receptor M2 (Homo sapiens, UniProt P08172); assay: Binding affinity to human muscarinic M2 receptor by PDSP assay
# Chain of Muscarinic acetylcholine receptor M2 (P08172 whole entry): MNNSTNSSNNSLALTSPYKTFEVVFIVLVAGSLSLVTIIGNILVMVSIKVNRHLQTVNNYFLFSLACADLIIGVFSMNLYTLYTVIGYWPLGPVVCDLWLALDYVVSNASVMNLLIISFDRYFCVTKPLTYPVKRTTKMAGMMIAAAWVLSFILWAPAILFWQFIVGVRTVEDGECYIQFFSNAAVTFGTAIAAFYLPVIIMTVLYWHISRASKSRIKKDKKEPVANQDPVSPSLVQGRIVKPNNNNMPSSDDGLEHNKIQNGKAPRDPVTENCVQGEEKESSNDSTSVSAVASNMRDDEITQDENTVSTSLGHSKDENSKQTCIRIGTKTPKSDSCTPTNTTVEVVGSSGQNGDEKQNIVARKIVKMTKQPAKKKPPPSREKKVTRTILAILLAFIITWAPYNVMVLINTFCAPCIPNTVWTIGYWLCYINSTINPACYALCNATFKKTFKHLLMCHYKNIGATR
# [14] = biological target: Alpha-1D adrenergic receptor (Homo sapiens, UniProt P25100); assay: Binding affinity to human alpha-1D adrenergic receptor by PDSP assay
# [15] = biological target: Alpha-2A adrenergic receptor (Homo sapiens, UniProt P08913); assay: Binding affinity to human alpha-2A adrenergic receptor by PDSP assay
# [16] = biological target: Alpha-1A adrenergic receptor (Homo sapiens, UniProt P35348); assay: Binding affinity to human alpha-1A adrenergic receptor by PDSP assay
# Chain of Alpha-1A adrenergic receptor (P35348 whole entry): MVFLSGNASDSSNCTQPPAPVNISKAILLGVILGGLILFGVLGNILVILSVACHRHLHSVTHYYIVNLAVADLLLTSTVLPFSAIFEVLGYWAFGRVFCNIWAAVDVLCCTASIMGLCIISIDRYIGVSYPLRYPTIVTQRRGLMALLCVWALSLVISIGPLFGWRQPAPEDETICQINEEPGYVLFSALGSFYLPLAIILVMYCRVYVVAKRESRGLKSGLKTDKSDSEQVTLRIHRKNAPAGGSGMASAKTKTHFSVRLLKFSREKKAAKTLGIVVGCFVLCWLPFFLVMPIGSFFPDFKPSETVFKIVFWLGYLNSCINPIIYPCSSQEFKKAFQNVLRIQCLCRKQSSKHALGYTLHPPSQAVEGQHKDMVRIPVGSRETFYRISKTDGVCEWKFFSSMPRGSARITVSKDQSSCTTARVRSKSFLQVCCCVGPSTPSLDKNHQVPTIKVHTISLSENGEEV
# [17] = biological target: 5-hydroxytryptamine receptor 2B (Homo sapiens, UniProt P41595); assay: Binding affinity to human 5-HT2B receptor by PDSP assay
# [18] = biological target: 5-hydroxytryptamine receptor 6 (Homo sapiens, UniProt P50406); assay: Binding affinity to human 5-HT6 receptor by PDSP assay
# [19] = Binding affinity to human sigma-2 receptor by PDSP assay
# [20] = biological target: Beta-1 adrenergic receptor (Homo sapiens, UniProt P08588); assay: Binding affinity to human beta1 adrenergic receptor by PDSP assay
# D(1A) dopamine receptor = D(1A) dopamine receptor (Homo sapiens, UniProt P21728); assay: Binding affinity to human dopamine D1 receptor by PDSP assay
# Chain of D(1A) dopamine receptor (P21728 whole entry): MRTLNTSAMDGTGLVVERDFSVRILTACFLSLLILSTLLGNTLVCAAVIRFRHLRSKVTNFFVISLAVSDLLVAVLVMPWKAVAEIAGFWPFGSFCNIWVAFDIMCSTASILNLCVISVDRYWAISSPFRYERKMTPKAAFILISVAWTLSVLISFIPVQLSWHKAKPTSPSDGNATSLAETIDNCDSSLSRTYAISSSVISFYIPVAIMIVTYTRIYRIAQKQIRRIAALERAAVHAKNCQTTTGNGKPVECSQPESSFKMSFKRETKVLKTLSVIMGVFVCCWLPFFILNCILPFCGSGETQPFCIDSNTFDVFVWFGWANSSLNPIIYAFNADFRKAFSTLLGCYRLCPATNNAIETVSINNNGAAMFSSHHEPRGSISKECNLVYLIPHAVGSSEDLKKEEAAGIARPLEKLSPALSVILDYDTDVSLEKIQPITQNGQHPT
# Histamine H1 receptor = Histamine H1 receptor (Homo sapiens, UniProt P35367); assay: Binding affinity to human histamine H1 receptor by PDSP assay
# [21] = biological target: 5-hydroxytryptamine receptor 3A (Homo sapiens, UniProt P46098); assay: Binding affinity to human 5-HT3 receptor by PDSP assay
# [22] = biological target: Metabotropic glutamate receptor 5 (Homo sapiens, UniProt P41594); assay: Binding affinity to human mGluR5 by PDSP assay
# [23] = biological target: Beta-2 adrenergic receptor (Homo sapiens, UniProt P07550); assay: Binding affinity to human beta2 adrenergic receptor by PDSP assay
# Chain of Beta-2 adrenergic receptor (P07550 whole entry): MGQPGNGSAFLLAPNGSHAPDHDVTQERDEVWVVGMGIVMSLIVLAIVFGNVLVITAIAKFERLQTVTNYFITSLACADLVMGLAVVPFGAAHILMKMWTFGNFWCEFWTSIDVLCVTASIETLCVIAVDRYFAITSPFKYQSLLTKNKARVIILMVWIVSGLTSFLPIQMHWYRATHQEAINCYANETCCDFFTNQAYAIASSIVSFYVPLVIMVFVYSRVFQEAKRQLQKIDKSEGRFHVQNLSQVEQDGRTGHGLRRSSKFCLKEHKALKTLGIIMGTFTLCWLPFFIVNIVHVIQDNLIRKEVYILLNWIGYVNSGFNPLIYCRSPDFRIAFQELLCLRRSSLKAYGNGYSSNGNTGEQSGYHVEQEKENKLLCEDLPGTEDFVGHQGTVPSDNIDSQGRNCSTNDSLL
# [24] = biological target: Muscarinic acetylcholine receptor M1 (Homo sapiens, UniProt P11229); assay: Binding affinity to human muscarinic M1 receptor by PDSP assay
# [25] = biological target: Alpha-2C adrenergic receptor (Homo sapiens, UniProt P18825); assay: Binding affinity to human alpha-2C adrenergic receptor by PDSP assay
# Chain of Alpha-2C adrenergic receptor (P18825 whole entry): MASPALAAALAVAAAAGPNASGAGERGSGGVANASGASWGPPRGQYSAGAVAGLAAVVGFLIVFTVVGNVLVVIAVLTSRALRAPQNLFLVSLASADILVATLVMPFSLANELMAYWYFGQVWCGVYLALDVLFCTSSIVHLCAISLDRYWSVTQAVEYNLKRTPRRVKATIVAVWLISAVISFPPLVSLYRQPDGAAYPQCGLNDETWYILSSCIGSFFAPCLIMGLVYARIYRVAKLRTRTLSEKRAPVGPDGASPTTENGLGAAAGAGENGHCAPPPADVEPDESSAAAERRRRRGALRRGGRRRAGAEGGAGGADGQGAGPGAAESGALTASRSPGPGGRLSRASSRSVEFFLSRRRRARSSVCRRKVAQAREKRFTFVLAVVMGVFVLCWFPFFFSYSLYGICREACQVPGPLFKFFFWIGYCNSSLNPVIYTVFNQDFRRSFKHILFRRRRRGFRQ
# [26] = biological target: GABA-A receptor; agonist GABA site; assay: Binding affinity to human GABAA receptor by PDSP assay; format: protein-complex assay
# D(4) dopamine receptor = D(4) dopamine receptor (Homo sapiens, UniProt P21917); assay: Binding affinity to human dopamine D4 receptor by PDSP assay
# [27] = biological target: 5-hydroxytryptamine receptor 1E (Homo sapiens, UniProt P28566); assay: Binding affinity to human 5-HT1E receptor by PDSP assay
# [28] = biological target: Beta-3 adrenergic receptor (Homo sapiens, UniProt P13945); assay: Binding affinity to human beta3 adrenergic receptor by PDSP assay
# [29] = biological target: Metabotropic glutamate receptor 5 (Rattus norvegicus, UniProt P31424); assay: Binding affinity to mGluR5 in rat brain; format: tissue-based
# D(2) dopamine receptor = D(2) dopamine receptor (Homo sapiens, UniProt P14416); assay: Binding affinity to human dopamine D2 receptor by PDSP assay
# [30] = biological target: Muscarinic acetylcholine receptor M4 (Homo sapiens, UniProt P08173); assay: Binding affinity to human muscarinic M4 receptor by PDSP assay
# [31] = biological target: 5-hydroxytryptamine receptor 7 (Homo sapiens, UniProt P34969); assay: Binding affinity to human 5-HT7 receptor by PDSP assay
# Chain of 5-hydroxytryptamine receptor 7 (P34969 whole entry): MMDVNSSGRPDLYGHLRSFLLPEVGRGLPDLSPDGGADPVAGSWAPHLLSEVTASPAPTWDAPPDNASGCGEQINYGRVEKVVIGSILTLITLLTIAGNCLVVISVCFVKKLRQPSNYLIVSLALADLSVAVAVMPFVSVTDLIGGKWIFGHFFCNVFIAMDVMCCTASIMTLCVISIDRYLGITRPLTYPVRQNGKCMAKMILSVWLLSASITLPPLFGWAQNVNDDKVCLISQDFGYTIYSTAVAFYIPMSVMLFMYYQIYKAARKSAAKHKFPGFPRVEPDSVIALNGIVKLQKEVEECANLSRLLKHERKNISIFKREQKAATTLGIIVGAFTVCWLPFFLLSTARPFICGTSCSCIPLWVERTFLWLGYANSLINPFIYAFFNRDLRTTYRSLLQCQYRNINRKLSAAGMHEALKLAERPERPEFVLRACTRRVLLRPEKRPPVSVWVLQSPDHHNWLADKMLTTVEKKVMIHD
# [32] = biological target: Glutamate [NMDA] receptor; assay: Binding affinity to human NMDA receptor by PDSP assay
# [33] = biological target: Sigma non-opioid intracellular receptor 1 (Homo sapiens, UniProt Q99720); assay: Binding affinity to human sigma-1 receptor by PDSP assay
# [34] = biological target: Sodium-dependent noradrenaline transporter (Homo sapiens, UniProt P23975); assay: Binding affinity to human NET by PDSP assay
# [35] = biological target: Alpha-1B adrenergic receptor (Homo sapiens, UniProt P35368); assay: Binding affinity to human alpha-1B adrenergic receptor by PDSP assay
structure (smiles),measurement,setting,value
CNc1cc(-c2csc(N(C)C(=O)c3ccc(F)cc3)n2)ncn1,Ki,[1],> 10 µM
same,Ki,[2],> 10 µM
same,Ki,Mu-type opioid receptor,> 10 µM
same,Ki,[3],> 10 µM
same,Ki,Translocator protein,> 10 µM
same,Ki,[4],> 10 µM
same,Ki,[5],> 10 µM
same,Ki,[6],> 10 µM
same,Ki,[7],> 10 µM
same,Ki,D(1B) dopamine receptor,> 10 µM
same,Ki,[8],> 10 µM
same,Ki,D(3) dopamine receptor,> 10 µM
same,Ki,[9],> 10 µM
same,Ki,[10],> 10 µM
same,Ki,[11],> 10 µM
same,Ki,Histamine H3 receptor,> 10 µM
same,Ki,[12],> 10 µM
same,Ki,[13],> 10 µM
same,Ki,[14],> 10 µM
same,Ki,[15],> 10 µM
same,Ki,[16],> 10 µM
same,Ki,[17],> 10 µM
same,Ki,[18],> 10 µM
same,Ki,[19],> 10 µM
same,Ki,[20],> 10 µM
same,Ki,D(1A) dopamine receptor,> 10 µM
same,Ki,Histamine H1 receptor,> 10 µM
same,Ki,[21],> 10 µM
same,Ki,[22],7.9 µM
same,Ki,[23],> 10 µM
same,Ki,[24],> 10 µM
same,Ki,[25],> 10 µM
same,Ki,[26],> 10 µM
same,Ki,D(4) dopamine receptor,> 10 µM
same,Ki,[27],> 10 µM
same,Ki,[28],> 10 µM
same,Ki,[29],2.1 µM
same,Ki,D(2) dopamine receptor,> 10 µM
same,Ki,[30],> 10 µM
same,Ki,[31],> 10 µM
same,Ki,[32],> 10 µM
same,Ki,[33],> 10 µM
same,Ki,[34],> 10 µM
same,Ki,[35],> 10 µM
